Values quoted from earlier work, collected in article PMC6882435, “Preparation and study of two kinds of ophthalmic nano-preparations of everolimus” (Drug Delivery, 2019).

Tests used:
[1] = set-up: method as in Iwase & Maitani, 2012; details: raw material at room temperature; ref Iwase & Maitani, 2012
[2] = set-up: method as in Baspinar et al., 2008; Tedesco-Silva et al., 2019; details: patients that take the drug (systemic, oral); ref Baspinar et al., 2008; Tedesco-Silva et al., 2019

In the case of `CO[C@H]1C[C@@H]2CC[C@@H](C)[C@@](O)(O2)C(=O)C(=O)N2CCCC[C@H]2C(=O)O[C@H]([C@H](C)C[C@@H]2CC[C@@H](OCCO)[C@H](OC)C2)CC(=O)[C@H](C)/C=C(\C)[C@@H](O)[C@@H](OC)C(=O)[C@H](C)C[C@H](C)/C=C/C=C/C=C/1C` [Everolimus, 4 O-O-(2-hydroxyethyl)-rapamycin], the solubility [1] is listed as “about 9.6 μg·mL^−1” and the “patients with side effects such as thrombocytopenia and dyslipidemia” value [2] is listed as “about 30%”.
